Patent US10457655B2, “Compounds and compositions for inhibition of FASN” (FORMA Therapeutics, Inc., priority 2013, dated 2019)
Like-named read-outs stand apart in the source and are kept apart here. One block for each compound: values may come before it.

Biological target: FASN enzyme (Homo sapiens, UniProt P49327)
Experiment: Enzymatic Assay for FASN Inhibitors
Type: biochemical
Summary of the method: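 40 nM FASN preincubated with compound 60 min at 25° C in HEPES pH 7.3 buffer with 0.04% Triton X-100. Then 20 μM acetyl-CoA, 60 μM malonyl-CoA and 100 μM NADPH added for 90 min, quenched with CPM thiol probe; fluorescence 360/530 nm, IC50 by four-parameter fit.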

[1] = FASN enzymatic assay, Table 2-2
[2] = FASN enzymatic assay, Table 2-3

FASN enzyme, sequence (P49327 whole entry): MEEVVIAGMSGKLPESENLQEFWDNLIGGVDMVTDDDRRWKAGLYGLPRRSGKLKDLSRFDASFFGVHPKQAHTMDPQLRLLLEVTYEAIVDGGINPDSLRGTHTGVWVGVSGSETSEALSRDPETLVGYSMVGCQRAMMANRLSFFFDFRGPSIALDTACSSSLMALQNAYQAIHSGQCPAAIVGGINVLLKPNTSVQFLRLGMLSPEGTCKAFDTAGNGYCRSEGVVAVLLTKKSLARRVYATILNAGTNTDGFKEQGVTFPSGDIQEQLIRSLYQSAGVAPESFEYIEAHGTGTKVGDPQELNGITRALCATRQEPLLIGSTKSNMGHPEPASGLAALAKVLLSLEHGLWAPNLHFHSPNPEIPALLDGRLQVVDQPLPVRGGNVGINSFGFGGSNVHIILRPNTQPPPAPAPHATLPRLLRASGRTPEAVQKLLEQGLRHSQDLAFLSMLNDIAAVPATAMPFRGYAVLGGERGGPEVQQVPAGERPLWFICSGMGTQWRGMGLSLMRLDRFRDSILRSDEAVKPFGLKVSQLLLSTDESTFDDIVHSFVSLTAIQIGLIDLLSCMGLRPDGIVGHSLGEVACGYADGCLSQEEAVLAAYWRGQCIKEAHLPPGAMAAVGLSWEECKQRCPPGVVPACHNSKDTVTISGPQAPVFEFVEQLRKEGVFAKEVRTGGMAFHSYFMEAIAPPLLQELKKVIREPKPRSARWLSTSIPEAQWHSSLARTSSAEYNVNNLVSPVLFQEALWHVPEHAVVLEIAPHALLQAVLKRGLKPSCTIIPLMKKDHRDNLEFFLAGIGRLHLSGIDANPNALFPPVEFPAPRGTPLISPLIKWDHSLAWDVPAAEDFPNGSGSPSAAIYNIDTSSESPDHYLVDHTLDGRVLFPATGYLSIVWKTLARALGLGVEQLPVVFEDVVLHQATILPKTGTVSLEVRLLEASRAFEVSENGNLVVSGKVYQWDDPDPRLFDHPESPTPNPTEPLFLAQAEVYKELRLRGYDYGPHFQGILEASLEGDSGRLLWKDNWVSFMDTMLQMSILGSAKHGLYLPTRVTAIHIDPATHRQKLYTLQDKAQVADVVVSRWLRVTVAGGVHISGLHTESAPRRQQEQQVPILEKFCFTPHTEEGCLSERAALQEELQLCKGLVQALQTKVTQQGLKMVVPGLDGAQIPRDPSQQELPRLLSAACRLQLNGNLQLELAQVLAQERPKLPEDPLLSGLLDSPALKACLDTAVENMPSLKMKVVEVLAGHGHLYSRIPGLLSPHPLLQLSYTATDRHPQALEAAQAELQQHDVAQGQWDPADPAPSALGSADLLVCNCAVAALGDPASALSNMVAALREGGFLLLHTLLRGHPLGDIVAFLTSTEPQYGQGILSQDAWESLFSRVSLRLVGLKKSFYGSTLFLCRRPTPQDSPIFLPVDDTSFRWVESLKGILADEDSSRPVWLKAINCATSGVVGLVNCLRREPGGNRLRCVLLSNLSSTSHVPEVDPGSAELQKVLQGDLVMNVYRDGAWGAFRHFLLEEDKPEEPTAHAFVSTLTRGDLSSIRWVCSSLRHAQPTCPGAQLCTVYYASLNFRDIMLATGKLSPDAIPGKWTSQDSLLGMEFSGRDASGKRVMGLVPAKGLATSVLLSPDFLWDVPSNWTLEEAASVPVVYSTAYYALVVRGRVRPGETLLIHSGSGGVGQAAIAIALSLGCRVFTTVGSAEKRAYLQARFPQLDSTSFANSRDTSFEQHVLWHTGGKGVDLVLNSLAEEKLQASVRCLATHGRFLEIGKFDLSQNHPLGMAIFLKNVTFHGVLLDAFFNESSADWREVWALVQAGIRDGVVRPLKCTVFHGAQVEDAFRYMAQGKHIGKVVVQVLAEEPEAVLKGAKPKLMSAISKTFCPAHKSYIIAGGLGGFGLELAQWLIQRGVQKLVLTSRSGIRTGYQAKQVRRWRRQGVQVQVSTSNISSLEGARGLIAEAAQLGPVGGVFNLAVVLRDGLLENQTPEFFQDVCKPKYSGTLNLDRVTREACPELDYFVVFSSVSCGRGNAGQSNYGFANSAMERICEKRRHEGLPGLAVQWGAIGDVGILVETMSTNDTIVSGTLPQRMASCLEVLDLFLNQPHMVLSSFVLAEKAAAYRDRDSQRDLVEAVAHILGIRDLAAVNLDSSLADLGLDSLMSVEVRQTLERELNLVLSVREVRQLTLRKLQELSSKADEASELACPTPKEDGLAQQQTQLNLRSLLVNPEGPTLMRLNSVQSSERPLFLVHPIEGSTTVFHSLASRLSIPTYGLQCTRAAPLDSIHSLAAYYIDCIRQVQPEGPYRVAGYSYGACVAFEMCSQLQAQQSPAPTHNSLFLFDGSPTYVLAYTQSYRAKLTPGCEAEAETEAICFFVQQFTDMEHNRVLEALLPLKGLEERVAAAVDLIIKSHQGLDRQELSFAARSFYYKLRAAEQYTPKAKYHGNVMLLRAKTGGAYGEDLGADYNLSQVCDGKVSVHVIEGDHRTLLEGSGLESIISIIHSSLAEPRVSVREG

IC50 [1]: 0.5 to 5 µM
Structure (SMILES): Cc1ccc(F)c(-c2ccc(C(=O)N3CCN(C(=O)C4(O)CC4)CC3)cc2)c1 [1-[(4-{[4-(2-fluoro-5-methylphenyl)phenyl]carbonyl}piperazin-1-yl)carbonyl]cyclopropan-1-ol]

IC50: < 0.5 µM
Structure (SMILES): O=C(c1ccc(-c2ccc(Cl)c(Cl)c2)cc1)N1CCN(C(=O)C2(O)CC2)CC1 [1-[(4-{[4-(3,4-dichlorophenyl)phenyl]carbonyl}piperazin-1-yl)carbonyl]cyclopropan-1-ol]

IC50: < 0.5 µM
Structure (SMILES): O=C(c1ccc(-c2cccc(Cl)c2)cc1)N1CCN(C(=O)C2(O)CC2)CC1 [1-[(4-{[4-(3-chlorophenyl)phenyl]carbonyl}piperazin-1-yl)carbonyl]cyclopropan-1-ol]

IC50 [2]: ≥ 5 µM
Structure (SMILES): COc1c(F)cccc1-c1ccc(C(=O)N2CCN(C(=O)C3(O)CC3)CC2)cc1 [1-[(4-{[4-(3-fluoro-2-methoxyphenyl)phenyl]carbonyl}piperazin-1-yl)carbonyl]cyclopropan-1-ol]

IC50 [1]: 0.5 to 5 µM
Structure (SMILES): Cc1ccc(-c2ccc(C(=O)N3CCN(C(=O)C4(O)CC4)CC3)cc2)cc1F [1-[(4-{[4-(3-fluoro-4-methylphenyl)phenyl]carbonyl}piperazin-1-yl)carbonyl]cyclopropan-1-ol]

IC50 [2]: ≥ 5 µM
Structure (SMILES): COc1cnccc1-c1ccc(C(=O)N2CCN(C(=O)C3(O)CC3)CC2)cc1 [1-[(4-{[4-(3-methoxypyridin-4-yl)phenyl]carbonyl}piperazin-1-yl)carbonyl]cyclopropan-1-ol]

IC50 [1]: 0.5 to 5 µM
Structure (SMILES): Cc1noc2cc(-c3ccc(C(=O)N4CCN(C(=O)C5(O)CC5)CC4)cc3)ccc12 [1-[(4-{[4-(3-methyl-1,2-benzoxazol-6-yl)phenyl]carbonyl}piperazin-1-yl)carbonyl]cyclopropan-1-ol]

IC50 [2]: ≥ 5 µM
Structure (SMILES): Cc1cccc(-c2ccc(C(=O)N3CCN(C(=O)C4(O)CC4)CC3)cc2)c1 [1-[(4-{[4-(3-methylphenyl)phenyl]carbonyl}piperazin-1-yl)carbonyl]cyclopropan-1-ol]

IC50 [2]: ≥ 5 µM
Structure (SMILES): COc1cc(F)c(F)cc1-c1ccc(C(=O)N2CCN(C(=O)C3(O)CC3)CC2)cc1 [1-[(4-{[4-(4,5-difluoro-2-methoxyphenyl)phenyl]carbonyl}piperazin-1-yl)carbonyl]cyclopropan-1-ol]

IC50 [1]: 0.5 to 5 µM
Structure (SMILES): O=C(c1ccc(-c2nc3c(Cl)cccc3[nH]2)cc1)N1CCN(C(=O)C2(O)CC2)CC1 [1-[(4-{[4-(4-chloro-1H-1,3-benzodiazol-2-yl)phenyl]carbonyl}piperazin-1-yl)carbonyl]cyclopropan-1-ol]

IC50: < 0.5 µM
Structure (SMILES): COc1cc(Cl)ccc1-c1ccc(C(=O)N2CCN(C(=O)C3(O)CC3)CC2)cc1 [1-[(4-{[4-(4-chloro-2-methoxyphenyl)phenyl]carbonyl}piperazin-1-yl)carbonyl]cyclopropan-1-ol]

IC50: < 0.5 µM
Structure (SMILES): O=C(c1ccc(-c2ccc(Cl)c(F)c2)cc1)N1CCN(C(=O)C2(O)CC2)CC1 [1-[(4-{[4-(4-chloro-3-fluorophenyl)phenyl]carbonyl}piperazin-1-yl)carbonyl]cyclopropan-1-ol]

IC50 [2]: ≥ 5 µM
Structure (SMILES): Cc1ccc(-c2ccc(C(=O)N3CCN(C(=O)C4(O)CC4)CC3)cc2)cc1 [1-[(4-{[4-(4-methylphenyl)phenyl]carbonyl}piperazin-1-yl)carbonyl]cyclopropan-1-ol]

IC50 [1]: 0.5 to 5 µM
Structure (SMILES): O=C(c1ccc(-c2nc3cc(F)c(F)cc3[nH]2)cc1)N1CCN(C(=O)C2(O)CC2)CC1 [1-[(4-{[4-(5,6-difluoro-1H-1,3-benzodiazol-2-yl)phenyl]carbonyl}piperazin-1-yl)carbonyl]cyclopropan-1-ol]

IC50: < 0.5 µM
Structure (SMILES): O=C(c1ccc(-c2nc3cc(Cl)ccc3[nH]2)cc1)N1CCN(C(=O)C2(O)CC2)CC1 [1-[(4-{[4-(5-chloro-1H-1,3-benzodiazol-2-yl)phenyl]carbonyl}piperazin-1-yl)carbonyl]cyclopropan-1-ol]

IC50 [1]: 0.5 to 5 µM
Structure (SMILES): O=C(c1ccc(-c2nc3cc(F)ccc3[nH]2)cc1)N1CCN(C(=O)C2(O)CC2)CC1 [1-[(4-{[4-(5-fluoro-1H-1,3-benzodiazol-2-yl)phenyl]carbonyl}piperazin-1-yl)carbonyl]cyclopropan-1-ol]

IC50 [2]: ≥ 5 µM
Structure (SMILES): Cc1ccc(F)cc1-c1ccc(C(=O)N2CCN(C(=O)C3(O)CC3)CC2)cc1 [1-[(4-{[4-(5-fluoro-2-methylphenyl)phenyl]carbonyl}piperazin-1-yl)carbonyl]cyclopropan-1-ol]

IC50 [2]: ≥ 5 µM
Structure (SMILES): O=C(c1ccc(-c2cncc(F)c2)cc1)N1CCN(C(=O)C2(O)CC2)CC1 [1-[(4-{[4-(5-fluoropyridin-3-yl)phenyl]carbonyl}piperazin-1-yl)carbonyl]cyclopropan-1-ol]

IC50 [1]: 0.5 to 5 µM
Structure (SMILES): COc1ccc2[nH]c(-c3ccc(C(=O)N4CCN(C(=O)C5(O)CC5)CC4)cc3)nc2c1 [1-[(4-{[4-(5-methoxy-1H-1,3-benzodiazol-2-yl)phenyl]carbonyl}piperazin-1-yl)carbonyl]cyclopropan-1-ol]

IC50: < 0.5 µM
Structure (SMILES): O=C(c1ccc(-c2ccc3cc(F)ccc3n2)cc1)N1CCN(C(=O)C2(O)CC2)CC1 [1-[(4-{[4-(6-fluoroquinolin-2-yl)phenyl]carbonyl}piperazin-1-yl)carbonyl]cyclopropan-1-ol]

IC50 [2]: ≥ 5 µM
Structure (SMILES): Cc1ccc(-c2ccc(C(=O)N3CCN(C(=O)C4(O)CC4)CC3)cc2)cn1 [1-[(4-{[4-(6-methylpyridin-3-yl)phenyl]carbonyl}piperazin-1-yl)carbonyl]cyclopropan-1-ol]

IC50: < 0.5 µM
Structure (SMILES): O=C(c1ccc(-c2cnc3ccccc3c2)cc1)N1CCN(C(=O)C2(O)CC2)CC1 [1-[(4-{[4-(quinolin-3-yl)phenyl]carbonyl}piperazin-1-yl)carbonyl]cyclopropan-1-ol]

IC50 [1]: 0.5 to 5 µM
Structure (SMILES): O=C(c1ccc(-c2ccc3ncccc3c2)cc1C(F)(F)F)N1CCN(C(=O)C2(O)CC2)CC1 [1-[(4-{[4-(quinolin-6-yl)-2-(trifluoromethyl)phenyl]carbonyl}piperazin-1-yl)carbonyl]cyclopropan-1-ol]

IC50 [1]: 0.5 to 5 µM
Structure (SMILES): Cc1nc(-c2ccc3c(ccn3C)c2)sc1C(=O)N1CCN(C(=O)C2(O)CC2)CC1 [1-[(4-{[4-methyl-2-(1-methyl-1H-indol-5-yl)-1,3-thiazol-5-yl]carbonyl}piperazin-1-yl)carbonyl]cyclopropan-1-ol]

IC50 [1]: 0.5 to 5 µM
Structure (SMILES): Cc1nc(-c2cnc3ccccc3c2)sc1C(=O)N1CCN(C(=O)C2(O)CC2)CC1 [1-[(4-{[4-methyl-2-(quinolin-3-yl)-1,3-thiazol-5-yl]carbonyl}piperazin-1-yl)carbonyl]cyclopropan-1-ol]

IC50: < 0.5 µM
Structure (SMILES): Cn1ccc2cc(-c3cnc(C(=O)N4CCN(C(=O)C5(O)CC5)CC4)cn3)ccc21 [1-[(4-{[5-(1-methyl-1H-indol-5-yl)pyrazin-2-yl]carbonyl}piperazin-1-yl)carbonyl]cyclopropan-1-ol]

IC50 [1]: 0.5 to 5 µM
Structure (SMILES): COc1ccc2cc(-c3ccc(C(=O)N4CCN(C(=O)C5(O)CC5)CC4)nc3)ccc2n1 [1-[(4-{[5-(2-methoxyquinolin-6-yl)pyridin-2-yl]carbonyl}piperazin-1-yl)carbonyl]cyclopropan-1-ol]

IC50 [1]: 0.5 to 5 µM
Structure (SMILES): O=C(c1ccc(-c2ccc(Cl)cc2F)cn1)N1CCN(C(=O)C2(O)CC2)CC1 [1-[(4-{[5-(4-chloro-2-fluorophenyl)pyridin-2-yl]carbonyl}piperazin-1-yl)carbonyl]cyclopropan-1-ol]

IC50 [1]: 0.5 to 5 µM
Structure (SMILES): O=C(c1ncc(-c2ccc(Cl)cc2F)cn1)N1CCN(C(=O)C2(O)CC2)CC1 [1-[(4-{[5-(4-chloro-2-fluorophenyl)pyrimidin-2-yl]carbonyl}piperazin-1-yl)carbonyl]cyclopropan-1-ol]
